A short description of data set [1]: Determination of absorption in cannulated rats. Conditions: rat, oral dose. Format: in vivo, Sprague Dawley rats. As to the method: Drug levels were determined using an LC-MS-MS method. The resulting drug levels were used to compute the IV pharmacokinetic parameters: AUC IV and Dose IV. (2) Rats that have been cannulated in their portal vein (PV) and also in their jugular vein (JV) were dosed orally with test compound. Following oral dosing, plasma samples were typically collected from 0-6 hr from both the portal vein and the jugular vein. Drug levels were determined using an LC-MS-MS method. The resulting drug levels were used to compute the following pharmacokinetic parameters: AUC PO PV, AUC PO JV, and Dose PO. Using data derived from the above studies, the oral bioavailability F %, and the quantities Fa % and Fh % were calculated from the following formulas: F %=(AUC PO JV/AUC IV)*(Dose IV/Dose PO)*100 Fa %=(AUC PO PV/AUC IV)*(Dose IV/Dose PO)*100 Fh %=AUC PO JV/AUC PO PV where: AUC PO JV=Area under the curve following oral dose and plasma collected from the jugular vein AUC PO PV=Area under the curve following oral dose and plasma collected from the portal vein AUC IV=Area under the curve following an intravenous dose Dose IV=Intravenous Dose in mg/kg Dose PO=Oral Dose in mg/kg

The subject of data set [2] is oxazolone-induced colitis. The experiment in a line: Mouse model of oxazolone-induced colitis. Format: in vivo, BALB/C mice. The settings on record: PO, 1, 3, and/or 10 mg/kg BID (doses up to 10 mg/kg BID). As to the method: Assay 7: Mouse Model of Oxazalone-Induced Colitis
Oxazolone-induced colitis is an experimental model that has a histological resemblance to human ulcerative colitis (Heller et al. Immunology, 2002, 17, 629-638). Adult BALB/C mice from Harlan were used in the assay. On day 1, animals were lightly anesthetized with isoflurane and the hairs between the shoulder were carefully removed before oxazolone (4%, 150 μL, 4:1 acetone:olive oil formulation) or vehicle solution was slowly applied for skin sensitization. Seven days after skin sensitization, the mice were fasted overnight, anesthetized with isoflurane inhalation, and a 1 mL syringe equipped with a 3.5-F catheter, filled with oxazolone solution, was inserted carefully about 4 cm into the colon of the mouse. Following insertion, 50 μL of the oxazolone solution (1%, 1:1 ethanol:water formulation) was injected very slowly (over 30 sec using an injection pump) into the colon. The catheter was removed and the mice were held vertically (head down) for 2 min to ensure that the entire oxazolone solution remained inside the colon. Drug treatment (PO, BID or TID) or vehicle was initiated a day prior to the oxazolone intrarectal (IR) challenge. Two-day post oxazolone intrarectal challenge, the Disease Activity Index (DAI) was assessed by treatment-blinded experimenters for each mouse according to the criteria score: stool consistency score (0, normal; 2, loose; 4, diarrhea), gross bleeding score (0, absence; 2, blood tinged; 4, presence), and weight loss score (0, none; 1, 1%-5%; 2, 5%-10^%; 3, 10%-20%; 4, more than 20%); DAI=average of (stool consistency score+gross bleeding score+weight loss score).
Selected compounds of the invention were tested in the assay. Efficacy in the model is evidenced by a decrease in DAI score as compared with the score from vehicle treated animals.

A short description of data set [3]: Pharmacokinetics in plasma and the GI tract in rats. Format: in vivo, Sprague Dawley rats. Conditions: oral dosing in preclinical species. As to the method:
Assay 6: Pharmacokinetics in Plasma and the GI Tract in Rats and Dogs A test compound was dosed to male Sprague Dawley rats (n=3) as described in Assay 5. […] At all time points, the plasma concentration was below the limit of quantitation of 0.001 μg/mL.

In data set [4] the test system is splenic NK, B and T cells. The experiment in a line: Immunosuppression effects in mouse splenic natural killer (NK) cells. Format: in vivo, Balb/C mice. As to the method:
Assay 8: Immunosuppression Effects in Mouse Splenic Natural Killer (NK) Cells Depletion of mouse splenic cells is an experimental model of immunosuppression (Kudlacz et al., Am. J. of Transplantation, 2004, 4, 51-57). […] Adult male Balb/C mice (12-14 weeks of age) from Harlan were used for the study. […] Spleens were harvested 1 or 2 h post last dose and crushed immediately for cell subtype staining. Prior to fixation, fluorophore-labelled antibodies for CD19 (FITC; B cells), CD3e (PE; pan T cells) and DX5 (APC; NK cells) were incubated with splenocyte samples from each animal to allow for simultaneous, multiple subtype % analysis on the flow cytometer. The number of total spleen cells for each animal was measured by Scepter™ 2.0 Handheld Automated Cell Counter. The absolute number of lymphocyte subtype population (e.g., splenic B, T and NK cells) was calculated from the percentage of each subtype times total spleen cells for each animal. A one way ANOVA, with Dunnett's post hoc test, was used to compare the splenic lymphocytes number of the vehicle and test compound groups. The a level was set at p<0.05. Data were presented as the mean±SEM for each group.

A short description of data set [5]: First in human study of safety, tolerability and pharmacokinetics in healthy subjects. Format: in vivo. The settings on record: by comparison to other orally administered compounds. As to the method:
Assay 9: First in Human Study to Evaluate the Safety, Tolerability and Pharmacokinetics in Healthy Subjects
The compound of Example 1 was evaluated in a double-blinded, randomized, placebo-controlled, single ascending dose (SAD) and multiple ascending dose (MAD) study of safety, tolerability, and pharmacokinetics in healthy subjects. Pharmacokinetic samples were collected up to 72 hours post the final dose in both the SAD study (after the first dose) and MAD study (after 14 days of once-daily dosing). The SAD study enrolled 5 cohorts and the MAD study enrolled 4 cohorts totaling 72 subjects, of which 71 completed the dosing period.
Plasma pharmacokinetic (PK) parameters were determined by non-compartmental analysis using WinNonLin Version 6.4.0 (Pharsight, St Louis, Mo.). The plasma PK parameter presented here is:
Cmax: maximum concentration in plasma

A further data set concerns the target JAK1 (Homo sapiens (Human), UniProt P23458). Format: biochemical. As to the method: (§1) Assay 1: Biochemical JAK and Off-Target Kinase Assays
(§2) A panel of four LanthaScreen JAK biochemical assays (JAK1, 2, 3 and Tyk2) were carried in a common kinase reaction buffer (50 mM HEPES, pH 7.5, 0.01% Brij-35, 10 mM MgCl2, and 1 mM EGTA). Recombinant GST-tagged JAK enzymes and a GFP-tagged STAT1 peptide substrate were obtained from Life Technologies.
(§3) Serially diluted compounds were pre-incubated with each of the four JAK enzymes and the substrate in white 384-well microplates (Corning) at ambient temperature for 1 h. ATP was subsequently added to initiate the kinase reactions in 10 μL total volume, with 1% DMSO. […] Kinase reactions were allowed to proceed for 1 hour at ambient temperature before a 10 μL preparation of EDTA (10 mM final concentration) and Tb-anti-pSTAT1 (pTyr701) antibody (Life Technologies, 2 nM final concentration) in TR-FRET dilution buffer (Life Technologies) was added. The plates were allowed to incubate at ambient temperature for 1 h before being read on the EnVision reader (Perkin Elmer).
(§4) Results were expressed as pIC50 (negative logarithm of IC50) and subsequently converted to pKi (negative logarithm of dissociation constant, Ki) using the Cheng-Prusoff equation.

Another data set concerns the target JAK2 (Homo sapiens (Human), UniProt O60674). Format: biochemical. As to the method:
as §1, §2, §3, §4

The target of a further data set is TYK2 (Homo sapiens (Human), UniProt P29597). Format: biochemical. As to the method: as §1, §2, §3, §4
Data set [6] concerns IL-13 induced STAT6 phosphorylation in BEAS-2B human lung epithelial cells. Conditions: BEAS-2B cells, IL-13 induced STAT6 phosphorylation.
The test system of data set [7] is IL-4 induced STAT6 phosphorylation in THP-1 human monocytic cells. The settings on record: THP-1 cells, IL-4 induced STAT6 phosphorylation.
The conditions of data set [8]: 5% to 90% relative humidity, room temperature; listed as Crystalline 3-(1R,3s,5S)-3-((7-((5-methyl-H-pyrazol-3-yl)amino)-1,6-naphthyridi)). As to the method: A weighed sample was used and the humidity was lowest possible value (close to 0% RH) at the start of the analysis. The DMS analysis consisted of an initial drying step (0% RH) for 120 minutes, followed by two cycles of sorption and desorption with a scan rate of 5% RH/step over the humidity range of 5% RH to 90% RH. The DMS run was performed isothermally at 25° C.

Sequence of JAK1 (P23458 whole entry): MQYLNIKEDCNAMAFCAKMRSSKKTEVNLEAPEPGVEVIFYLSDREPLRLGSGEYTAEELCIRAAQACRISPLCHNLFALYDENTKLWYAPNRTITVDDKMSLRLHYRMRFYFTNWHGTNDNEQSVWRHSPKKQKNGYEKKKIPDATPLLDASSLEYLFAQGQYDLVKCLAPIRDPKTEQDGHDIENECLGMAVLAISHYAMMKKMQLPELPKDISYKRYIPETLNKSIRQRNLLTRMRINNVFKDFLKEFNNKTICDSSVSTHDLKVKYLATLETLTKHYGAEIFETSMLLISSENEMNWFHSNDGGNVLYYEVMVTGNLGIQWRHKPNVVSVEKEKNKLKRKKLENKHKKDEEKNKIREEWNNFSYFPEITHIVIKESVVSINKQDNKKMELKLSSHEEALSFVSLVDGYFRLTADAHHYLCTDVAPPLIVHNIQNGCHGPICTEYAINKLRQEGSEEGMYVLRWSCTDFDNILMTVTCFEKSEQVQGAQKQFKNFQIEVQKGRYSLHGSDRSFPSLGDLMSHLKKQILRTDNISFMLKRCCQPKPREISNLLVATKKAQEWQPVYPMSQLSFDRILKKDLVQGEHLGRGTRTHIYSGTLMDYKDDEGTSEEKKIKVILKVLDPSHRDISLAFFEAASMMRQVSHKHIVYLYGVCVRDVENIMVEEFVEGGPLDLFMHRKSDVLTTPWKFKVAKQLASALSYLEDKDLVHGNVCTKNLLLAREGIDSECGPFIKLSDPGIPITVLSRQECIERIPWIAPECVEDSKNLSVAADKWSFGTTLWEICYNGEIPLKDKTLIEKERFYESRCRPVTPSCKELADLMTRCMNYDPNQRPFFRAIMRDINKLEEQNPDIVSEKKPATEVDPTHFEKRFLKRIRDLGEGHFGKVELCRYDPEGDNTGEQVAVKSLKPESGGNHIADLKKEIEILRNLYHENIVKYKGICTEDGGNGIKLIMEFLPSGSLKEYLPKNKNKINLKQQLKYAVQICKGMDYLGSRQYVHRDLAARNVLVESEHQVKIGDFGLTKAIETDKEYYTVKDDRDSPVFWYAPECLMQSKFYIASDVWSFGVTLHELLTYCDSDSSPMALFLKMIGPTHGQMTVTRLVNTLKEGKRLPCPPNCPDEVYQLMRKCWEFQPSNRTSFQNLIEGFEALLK
Sequence of JAK2 (O60674 whole entry): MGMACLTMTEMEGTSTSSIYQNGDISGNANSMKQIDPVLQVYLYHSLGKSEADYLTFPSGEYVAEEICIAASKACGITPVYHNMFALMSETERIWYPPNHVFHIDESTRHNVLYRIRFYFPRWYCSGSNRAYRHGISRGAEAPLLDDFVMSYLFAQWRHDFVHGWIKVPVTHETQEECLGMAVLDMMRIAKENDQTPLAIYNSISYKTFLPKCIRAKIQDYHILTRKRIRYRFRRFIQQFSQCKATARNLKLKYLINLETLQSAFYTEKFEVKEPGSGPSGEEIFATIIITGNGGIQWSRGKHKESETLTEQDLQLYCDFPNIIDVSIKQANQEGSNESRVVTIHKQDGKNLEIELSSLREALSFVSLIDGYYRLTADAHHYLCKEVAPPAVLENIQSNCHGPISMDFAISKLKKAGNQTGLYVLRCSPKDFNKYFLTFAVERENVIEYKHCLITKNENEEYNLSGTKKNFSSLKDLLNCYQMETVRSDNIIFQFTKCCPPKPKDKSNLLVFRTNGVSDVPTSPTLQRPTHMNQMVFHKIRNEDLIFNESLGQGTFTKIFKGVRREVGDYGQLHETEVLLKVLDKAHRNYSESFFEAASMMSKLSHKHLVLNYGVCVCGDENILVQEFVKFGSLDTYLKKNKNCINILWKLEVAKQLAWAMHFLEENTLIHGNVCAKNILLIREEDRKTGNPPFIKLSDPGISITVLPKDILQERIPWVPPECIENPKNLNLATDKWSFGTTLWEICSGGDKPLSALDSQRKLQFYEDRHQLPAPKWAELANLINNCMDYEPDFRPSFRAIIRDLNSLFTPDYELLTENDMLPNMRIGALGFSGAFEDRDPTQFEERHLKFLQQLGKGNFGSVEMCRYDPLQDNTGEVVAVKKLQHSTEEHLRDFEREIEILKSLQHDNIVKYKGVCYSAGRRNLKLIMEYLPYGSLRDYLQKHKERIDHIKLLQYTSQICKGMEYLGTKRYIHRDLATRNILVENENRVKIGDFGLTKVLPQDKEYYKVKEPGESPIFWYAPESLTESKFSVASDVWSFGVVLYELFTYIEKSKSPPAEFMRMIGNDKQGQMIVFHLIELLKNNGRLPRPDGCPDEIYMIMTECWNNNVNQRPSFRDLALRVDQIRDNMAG
Sequence of TYK2 (P29597 whole entry): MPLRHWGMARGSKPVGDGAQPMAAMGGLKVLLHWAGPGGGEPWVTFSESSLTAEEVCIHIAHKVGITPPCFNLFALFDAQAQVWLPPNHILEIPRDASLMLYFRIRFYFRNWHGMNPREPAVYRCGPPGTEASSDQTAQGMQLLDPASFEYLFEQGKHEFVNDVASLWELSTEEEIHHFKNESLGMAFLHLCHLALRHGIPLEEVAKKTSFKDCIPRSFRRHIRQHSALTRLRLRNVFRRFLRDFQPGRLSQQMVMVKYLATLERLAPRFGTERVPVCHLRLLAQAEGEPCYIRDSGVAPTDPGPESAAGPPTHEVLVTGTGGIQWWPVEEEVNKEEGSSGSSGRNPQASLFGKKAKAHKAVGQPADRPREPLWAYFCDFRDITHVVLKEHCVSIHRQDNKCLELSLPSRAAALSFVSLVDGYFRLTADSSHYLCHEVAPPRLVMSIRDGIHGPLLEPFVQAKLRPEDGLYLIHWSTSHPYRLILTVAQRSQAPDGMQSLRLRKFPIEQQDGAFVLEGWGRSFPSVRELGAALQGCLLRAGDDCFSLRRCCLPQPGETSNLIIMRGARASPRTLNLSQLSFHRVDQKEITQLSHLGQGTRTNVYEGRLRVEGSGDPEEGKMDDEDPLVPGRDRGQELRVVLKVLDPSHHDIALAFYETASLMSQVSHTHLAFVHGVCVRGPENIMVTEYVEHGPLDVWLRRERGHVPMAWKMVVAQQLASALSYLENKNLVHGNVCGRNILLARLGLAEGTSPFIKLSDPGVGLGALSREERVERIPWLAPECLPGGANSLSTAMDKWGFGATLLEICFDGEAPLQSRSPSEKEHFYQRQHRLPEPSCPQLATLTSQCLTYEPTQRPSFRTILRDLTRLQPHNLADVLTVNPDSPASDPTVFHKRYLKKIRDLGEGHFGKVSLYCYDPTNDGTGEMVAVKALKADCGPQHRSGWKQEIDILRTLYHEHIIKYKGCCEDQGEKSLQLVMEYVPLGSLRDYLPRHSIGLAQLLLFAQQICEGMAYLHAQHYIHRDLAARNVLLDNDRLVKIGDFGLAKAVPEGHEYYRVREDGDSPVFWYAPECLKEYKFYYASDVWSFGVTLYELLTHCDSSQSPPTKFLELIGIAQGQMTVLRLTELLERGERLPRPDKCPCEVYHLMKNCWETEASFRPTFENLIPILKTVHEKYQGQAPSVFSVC

Consider `Cc1cc(Nc2cc3ncccc3c(N[C@@H]3C[C@H]4CCC[C@@H](C3)N4S(=O)(=O)c3cccnc3)n2)n[nH]1` [Example 8, N^7-(5-methyl-1H-pyrazol-3-yl)-N-((1R,3s,5S)-9-(pyridin-3-ylsulfonyl)-9-azabicyclo[3.3.1]nonan-3-yl)-1,6-naphthyridine-5,7-diamine], for which the “absorption at the portal vein (Fa %)” value in [1] is “less than 10%”. For the same molecule, in data set [2], the “DAI score as compared with vehicle treated animals” value is reported as “statistically significant decrease”.
As to `Cc1cc(Nc2cc3ncccc3c(N[C@@H]3C[C@H]4CC[C@@H](C3)N4CCC#N)n2)n[nH]1` [Example 1, 3-((1R,3s,5S)-3-((7-((5-methyl-1H-pyrazol-3-yl)amino)-1,6-naphthyridin-5-yl)amino)-8-azabicyclo[3.2.1]octan-8-yl)propanenitrile], the “exposure throughout the gastrointestinal tract versus exposure in plasma” value in data set [3] is recorded as “significantly higher exposure”. In data set [2], the “DAI score as compared with vehicle treated animals” value is listed as “statistically significant decrease”. The effect of immunosuppression result in [4] (mice, same dose required for efficacy in the oxazolone model) is “minimal effect”. The “B and T cell populations (spleen)” value in data set [4] (mouse, PO BID three days) is recorded as “No treatment effect”. Moreover, the “splenic NK cell counts” value in data set [4] (mouse, PO BID three days, tofacitinib 30 mg/kg, Example 1 up to 100 mg/kg) is “unaffected”. Further, the oral bioavailability entry in data set [5] is “very low”.
As for `Cc1cc(Nc2cc3ncccc3c(N[C@@H]3C[C@H]4CC[C@@H](C3)N4CC(F)(F)F)n2)n[nH]1` [Example 1-14], the “JAK 1 (pKi)” value on JAK1 was “B (B represents a pKi value between 9 and 10 (Ki between 1 nM and 0.1 nM))”. The “JAK 2 (pKi)” value at JAK2 is “B (B represents a pKi value between 9 and 10 (Ki between 1 nM and 0.1 nM))”. Moreover, the “Tyk 2 (pKi)” value at TYK2 was “B (B represents a pKi value between 9 and 10 (Ki between 1 nM and 0.1 nM))”. Further, in data set [6], the “BEAS2B pIC50” value is “A (A represents a pEC50 value ≥7.5 (EC50≤32 nM))”. Besides, the “THP-1 IL4 pIC50” value in data set [7] is “A (A represents a pEC50 value ≥7.5 (EC50≤32 nM))”.
Turning to `Cc1cc(Nc2cc3ncccc3c(N[C@@H]3C[C@H]4CC[C@@H](C3)N4CCC#N)n2)n[nH]1` [Form I, 3-((1R,3s,5S)-3-((7-((5-methyl-1H-pyrazol-3-yl)amino)-1,6-naphthyridin-5-yl)amino)-8-azabicyclo[3.2.1]octan-8-yl)propanenitrile], the “weight gain / weight change (moisture sorption)” value in data set [8] is “less than 0.15%”.
As to `Cc1cc(Nc2cc3ncccc3c(N[C@@H]3C[C@H]4CCC[C@@H](C3)N4CC(F)(F)F)n2)n[nH]1` [Example 1-45], the “JAK 1 (pKi)” value at JAK1 is “B (B represents a pKi value between 9 and 10 (Ki between 1 nM and 0.1 nM))”. Further, the “JAK 2 (pKi)” value at JAK2 is “B (B represents a pKi value between 9 and 10 (Ki between 1 nM and 0.1 nM))”. Moreover, the “Tyk 2 (pKi)” value on TYK2 is “B (B represents a pKi value between 9 and 10 (Ki between 1 nM and 0.1 nM))”.
On to `Cc1cc(Nc2cc3nc(CO)ccc3c(N[C@@H]3C[C@H]4CC[C@@H](C3)N4C(=O)OCC(C)C)n2)n[nH]1` [Example 12, Isobutyl (1R,3s,5S)-3-((2-(hydroxymethyl)-7-((5-methyl-1H-pyrazol-3-yl)amino)-1,6-naphthyridin-5-yl)amino)-8-azabicyclo[3.2.1]octane-8-carboxylate], for which the “absorption at the portal vein (Fa %)” value in [1] is “less than 10%”. In data set [2], the “DAI score as compared with vehicle treated animals” value is “statistically significant decrease”.
